The text below walks through data of ChEMBL document CHEMBL3880410, “Novel oxabispidine compounds and their use in the treatment of cardiac arrhythmias” (2009).

For this assay, the system named is Cavia porcellus. Nature of the assay: Anti-cardiac arrhythmia activity in anaesthetised guinea pig assessed as cumulative dose inducing prolongation of monophasic action potential duration by 10% from baseline administered as first dose infusion in 0.2 mL/kg into jugular vein catheter for 30 secs followed by next dosing after 5 mins for 6 to 10 consecutive times by electrophysiology based assay. The format is functional.
With `N#Cc1ccc(OCCCN2CC3CN(CCNS(=O)(=O)c4ccccc4OC(F)(F)F)CC(C2)O3)cc1`, the D10 was over 5.5 mg/kg.
Next, `CC(C)S(=O)(=O)NCCN1CC2CN(CCCOc3ccc(C#N)cc3)CC(C1)O2`: over 5.5 mg/kg; `N#Cc1ccc(OCCCN2CC3CN(CCNS(=O)(=O)Cc4ccccc4)CC(C2)O3)cc1`: over 5.5 mg/kg; `N#Cc1ccc(OCCN2CC3CN(CCNS(=O)(=O)Cc4ccc(C(F)(F)F)cc4)CC(C2)O3)cc1`: over 5.5 mg/kg.
Next, `Cn1cnc(S(=O)(=O)NCCN2CC3CN(CCCOc4ccc(C#N)cc4)CC(C2)O3)c1`: over 5.5 mg/kg.
Next, `N#Cc1ccc(S(=O)(=O)NCCN2CC3CN(CCc4ccc(F)cc4)CC(C2)O3)cc1`: over 5.5 mg/kg; `N#Cc1ccc(OCCN2CC3CN(CCNS(=O)(=O)Cc4cccc(Cl)c4)CC(C2)O3)cc1`: over 5.5 mg/kg.
In the case of `N#Cc1ccc(S(=O)(=O)NCCN2CC3CN(CCOc4ccc(F)cc4)CC(C2)O3)cc1`, the D10 was over 5.5 mg/kg.
Then `N#Cc1ccc(OCCN2CC3CN(CCNS(=O)(=O)c4ccccc4)CC(C2)O3)cc1`, with over 5.5 mg/kg; and `CC(C)(C)NS(=O)(=O)CCCN1CC2CN(CCCOc3ccc(C#N)cc3)CC(C1)O2`, with over 5.5 mg/kg; and `CC(C)S(=O)(=O)NCCN1CC2CN(C[C@H](O)COc3ccc(C#N)cc3)CC(C1)O2`, with over 5.5 mg/kg.
Then `N#Cc1ccc(OCCN2CC3CN(CCNS(=O)(=O)c4ccc(F)cc4)CC(C2)O3)cc1`, with over 5.5 mg/kg; and `N#Cc1ccc(OCCCN2CC3CN(CCNS(=O)(=O)c4ccc(F)cc4F)CC(C2)O3)cc1`, with over 5.5 mg/kg.
For `N#Cc1ccc(CN2CC3CN(CCNS(=O)(=O)c4ccc(C#N)cc4)CC(C2)O3)cc1`, the D10 is over 5.5 mg/kg.
Next, `CS(=O)(=O)NCCN1CC2CN(CCOc3ccc(C#N)cc3)CC(C1)O2`: over 5.5 mg/kg; `N#Cc1ccc(OCCCN2CC3CN(CCNS(=O)(=O)c4ccc(F)cc4)CC(C2)O3)cc1`: over 5.5 mg/kg; `Cn1cnc(S(=O)(=O)NCCN2CC3CN(CCOc4ccc(C#N)cc4)CC(C2)O3)c1`: over 5.5 mg/kg.
Then `Cc1noc(C)c1S(=O)(=O)NCCN1CC2CN(CCCOc3ccc(C#N)cc3)CC(C1)O2`, with over 5.5 mg/kg.
Next, `CCCCS(=O)(=O)NCCN1CC2CN(CCCOc3ccc(C#N)cc3)CC(C1)O2`: over 5.5 mg/kg; `N#Cc1ccc(OCCCN2CC3CN(CCNS(=O)(=O)Cc4ccc(C(F)(F)F)cc4)CC(C2)O3)cc1`: over 5.5 mg/kg.
For `N#Cc1ccc(OCCCN2CC3CN(CCNS(=O)(=O)c4ccccc4)CC(C2)O3)cc1`, the D10 is over 5.5 mg/kg.
Regarding `N#Cc1ccc(OCCCN2CC3CN(CCNS(=O)(=O)C(F)(F)F)CC(C2)O3)cc1`, the D10 was over 5.5 mg/kg.
Next, `N#Cc1ccc(OCCN2CC3CN(CCNS(=O)(=O)Cc4ccccc4)CC(C2)O3)cc1`: over 5.5 mg/kg; `N#Cc1ccc(S(=O)(=O)NCCN2CC3CN(Cc4ccc(OC(F)F)cc4)CC(C2)O3)cc1`: over 5.5 mg/kg; `N#Cc1ccc(OCCCN2CC3CN(CCNS(=O)(=O)c4ccc(C#N)cc4)CC(C2)O3)cc1`: over 5.5 mg/kg.
Then `CS(=O)(=O)NCCN1CC2CN(CCCOc3ccc(C#N)cc3)CC(C1)O2`, with over 5.5 mg/kg.
Next, `N#Cc1ccc(OCCN2CC3CN(CCNS(=O)(=O)c4ccc(C#N)cc4)CC(C2)O3)cc1`: over 5.5 mg/kg; `O=S(=O)(NCCN1CC2CN(Cc3ccccc3)CC(C1)O2)c1ccc(F)cc1`: over 5.5 mg/kg; `CC(C)(C)OC(=O)NCCN1CC2CN(CCNS(=O)(=O)c3ccc(F)cc3)CC(C1)O2`: over 5.5 mg/kg.
Turning to `N#Cc1ccc(OCCCN2CC3CN(CCNS(=O)(=O)Cc4cccc(Cl)c4)CC(C2)O3)cc1`, the D10 was over 5.5 mg/kg.
Next, `N#Cc1ccc(S(=O)(=O)NCCN2CC3CN(Cc4ccc(F)cc4)CC(C2)O3)cc1`: over 5.5 mg/kg.
